# Tested on: respiratory epithelial cells
substance,measurement,setting,value
"IL-13: human IL-13 (Peprotech, Inc.) added to the medium at 50 ng/mL to stimulate respiratory epithelial cells",DPP4 (34823_at) expression fold change upon IL-13 stimulation,"lot 2, Day 7, AI method",10 fold
same,DPYD (38220_at) expression fold change upon IL-13 stimulation,"lot 2, Day 7, AI method",2.1 fold
same,FADS3 (43394_s_at) expression fold change,"lot 2, Day 7, AI method",9.8 fold
same,FLJ10261 (43366_at) expression fold change,"lot 2, Day 7, AI method",7.9 fold
same,FLJ10261 (43963_at) expression fold change,"lot 2, Day 7, AI method",6.2 fold
same,FLJ14281 (50209_at) expression fold change,"lot 2, Day 7, AI method",2 fold
same,FLJ22332 (56959_at) expression fold change,"lot 2, Day 7, AI method",3.6 fold
same,FLJ22693 (53777_at) expression fold change,"lot 2, Day 7, AI method",1.6 fold
same,"G1P3 (1358_s_at) expression, fold change upon IL-13 stimulation","lot 2, Day 7, AI method",10.9 fold
same,H11 (56474_at) expression fold change,"lot 2, Day 7, AI method",2.1 fold
same,HDAC9 (37483_at) expression fold change upon IL-13 stimulation,"lot 2, Day 7, AI method",26.1 fold
same,"HLA-F (37420_i_at) expression, fold change upon IL-13 stimulation","lot 2, Day 7, AI method",2.8 fold
same,"HLA-F (37421_f_at) expression, fold change upon IL-13 stimulation","lot 2, Day 7, AI method",2.2 fold
same,HLA-F (49203_f_at) expression fold change,"lot 2, Day 7, AI method",2.8 fold
same,"HLALS (34427_g_at) expression, fold change upon IL-13 stimulation","lot 2, Day 7, AI method",2 fold
same,HS3ST1 (41556_s_at) expression fold change upon IL-13 stimulation,"lot 2, Day 7, AI method",2.5 fold
same,HSD17B2 (38178_at) expression fold change upon IL-13 stimulation,"lot 2, Day 7, AI method",3.5 fold
same,HSPA5 (47634_at) expression fold change,"lot 2, Day 7, AI method",2.6 fold
same,"HUMRTVLH3 (34702_f_at) expression, fold change upon IL-13 stimulation","lot 2, Day 7, AI method",3.1 fold
same,"Human hbc647 mRNA sequence (34759_at) expression, fold change upon IL-13 stimulation","lot 2, Day 7, AI method",2.9 fold
same,ICAMt (32640_at) expression fold change upon IL-13 stimulation,"lot 2, Day 7, AI method",4.1 fold
same,"IFI27 (425_at) expression, fold change upon IL-13 stimulation","lot 2, Day 7, AI method",4.7 fold
same,IFI27 (48864_at) expression fold change,"lot 2, Day 7, AI method",3.3 fold
same,"IFI30 (39728_at) expression, fold change upon IL-13 stimulation","lot 2, Day 7, AI method",2.3 fold
same,"IFIT1 (915_at) expression, fold change upon IL-13 stimulation","lot 2, Day 7, AI method",7.7 fold
same,"IFIT4 (38584_at) expression, fold change upon IL-13 stimulation","lot 2, Day 7, AI method",3.6 fold
same,IL13RA2 (1016_s_at) expression fold change upon IL-13 stimulation,"lot 2, Day 7, AI method",36.5 fold
same,IRF7 (36412_s_at) expression fold change,"lot 2, Day 7, AI method",3.6 fold
same,IRLB (32961_at) expression fold change,"lot 2, Day 7, AI method",2 fold
same,"ISG15 (1107_s_at) expression, fold change upon IL-13 stimulation","lot 2, Day 7, AI method",4.3 fold
same,"ISG15 (38432_at) expression, fold change upon IL-13 stimulation","lot 2, Day 7, AI method",6.9 fold
same,"KIAA0469 (37230_at) expression, fold change upon IL-13 stimulation","lot 2, Day 7, AI method",3 fold
same,"KIAA0537 (33787_at) expression, fold change upon IL-13 stimulation","lot 2, Day 7, AI method",4.8 fold
same,"KIAA1199 (36070_at) expression, fold change upon IL-13 stimulation","lot 2, Day 7, AI method",3.4 fold
same,KIAA1268 (57050_at) expression fold change,"lot 2, Day 7, AI method",1.7 fold
same,KIAAI268 (59516_at) expression fold change,"lot 2, Day 7, AI method",5.9 fold
same,KRT16 (601_s_at) expression fold change,"lot 2, Day 7, AI method",2 fold
same,"LAMP3 (37168_at) expression, fold change upon IL-13 stimulation","lot 2, Day 7, AI method",3 fold
same,"LOC64116 (40456_at) expression, fold change upon IL-13 stimulation","lot 2, Day 7, AI method",3 fold
same,"LRPAP1 (36194_at) expression, fold change upon IL-13 stimulation","lot 2, Day 7, AI method",2.2 fold
same,MAT2A (32571_at) expression fold change upon IL-13 stimulation,"lot 2, Day 7, AI method",2.9 fold
same,MDA5 (51920_at) expression fold change,"lot 2, Day 7, AI method",2.8 fold
same,MED6 (35432_at) expression fold change,"lot 2, Day 7, AI method",2 fold
same,"MET (1609_g_at) expression, fold change upon IL-13 stimulation","lot 2, Day 7, AI method",3.4 fold
same,"MET (1812_s_at) expression, fold change upon IL-13 stimulation","lot 2, Day 7, AI method",5.8 fold
same,"MET (35684_at) expression, fold change upon IL-13 stimulation","lot 2, Day 7, AI method",2.4 fold
same,MFHAS1 (50388_at) expression fold change,"lot 2, Day 7, AI method",2.4 fold
same,"MICB (35937_at) expression, fold change upon IL-13 stimulation","lot 2, Day 7, AI method",5.6 fold
same,"MKP-L (38272_at) expression, fold change upon IL-13 stimulation","lot 2, Day 7, AI method",5.1 fold
same,"MMP7 (668_s_at) expression, fold change upon IL-13 stimulation","lot 2, Day 7, AI method",2 fold
same,"MP1 (34839_at) expression, fold change upon IL-13 stimulation","lot 2, Day 7, AI method",2.4 fold
same,MXI (37014_at) expression fold change,"lot 2, Day 7, AI method",4.2 fold
same,NCF2 (41038_at) expression fold change,"lot 2, Day 7, AI method",4.2 fold
same,NFIL3 (37544_at) expression fold change,"lot 2, Day 7, AI method",2.7 fold
same,"NTRK1 (36805_s_at) expression, fold change upon IL-13 stimulation","lot 2, Day 7, AI method",4.9 fold
same,"OAF (39695_at) expression, fold change upon IL-13 stimulation","lot 2, Day 7, AI method",11.4 fold
same,OSF-2 (1451_s_at) expression fold change upon IL-13 stimulation,"lot 2, Day 7, AI method",46.4 fold
same,"PAK2 (1560_g_at) expression, fold change upon IL-13 stimulation","lot 2, Day 7, AI method",3.8 fold
same,"PITPNB (353_at) expression, fold change upon IL-13 stimulation","lot 2, Day 7, AI method",2 fold
same,"PITPNB (35017_f_at) expression, fold change upon IL-13 stimulation","lot 2, Day 7, AI method",2.4 fold
same,PMCH (32005_at) expression fold change,"lot 2, Day 7, AI method",4.3 fold
same,PSMB9 (38287_at) expression fold change upon IL-13 stimulation,"lot 2, Day 7, AI method",2.4 fold
same,PVRL2 (50320_g_at) expression fold change,"lot 2, Day 7, AI method",2.2 fold
same,RASGRP1 (33291_at) expression fold change,"lot 2, Day 7, AI method",4.2 fold
same,"SECTM1 (41045_at) expression, fold change upon IL-13 stimulation","lot 2, Day 7, AI method",4.6 fold
same,SERPINB2 (37185_at) expression fold change,"lot 2, Day 7, AI method",3.4 fold
same,SERPINB4 (1549_s_at) expression fold change,"lot 2, Day 7, AI method",15 fold
same,SIAT1 (41352_at) expression fold change upon IL-13 stimulation,"lot 2, Day 7, AI method",2.4 fold
same,"SLC26A4, pendrin (36376_at) expression fold change","lot 2, Day 7, AI method",58.2 fold
same,SPHK1 (51923_at) expression fold change,"lot 2, Day 7, AI method",2.5 fold
same,"SSI-1 (41592_at) expression, fold change upon IL-13 stimulation","lot 2, Day 7, AI method",11.3 fold
same,STAT1 (32859_at) expression fold change,"lot 2, Day 7, AI method",2.6 fold
same,STAT1 (33339_g_at) expression fold change,"lot 2, Day 7, AI method",2.5 fold
same,TGFB2 (1262_s_at) expression fold change upon IL-13 stimulation,"lot 2, Day 7, AI method",5.9 fold
same,TGM2 (38404_at) expression fold change upon IL-13 stimulation,"lot 2, Day 7, AI method",6 fold
same,"TSPAN-3 (38612_at) expression, fold change upon IL-13 stimulation","lot 2, Day 7, AI method",2.7 fold
same,TXNRD1 (39425_at) expression fold change upon IL-13 stimulation,"lot 2, Day 7, AI method",3.3 fold
same,"UFD1L (811_at) expression, fold change upon IL-13 stimulation","lot 2, Day 7, AI method",3.2 fold
same,W06879 (57696_at) expression fold change,"lot 2, Day 7, AI method",2 fold
same,ZNF263 (33288_i_at) expression fold change,"lot 2, Day 7, AI method",2 fold
same,"cig5 (38549_at) expression, fold change upon IL-13 stimulation","lot 2, Day 7, AI method",7.4 fold
same,AA045020 (44676_at) expression change,lot 2 Day 7 AI,−7.1
same,AA053401 (56234_r_at) expression change,lot 2 Day 7 AI,−3.2
same,AA059445 46293_at expression change,lot 2 Day 7 AI,−11.7
same,AA059458 (65626_at) expression change,lot 2 Day 7 AI,−4.6
same,AA079839 (69289_at) expression change,lot 2 Day 7 AI,−2.3
same,AA151265 (60939_i_at) expression change,lot 2 Day 7 AI,−2.7
same,AA151265 (60940_r_at) expression change,lot 2 Day 7 AI,−11.6
same,AA160156 (47578_at) expression change,lot 2 Day 7 AI,−3.1
same,AA203423 (65699_at) expression change,lot 2 Day 7 AI,−4.7
same,AA369887 (87539_i_at) expression change,lot 2 Day 7 AI,−2.6
same,AA398155 (48999_at) expression change,lot 2 Day 7 AI,−3.8
same,AA400080 (57282_at) expression change,lot 2 Day 7 AI,−4.1
same,AA422178 (53747_at) expression change,lot 2 Day 7 AI,−32.2
same,AA428312 (83988_at) expression change,lot 2 Day 7 AI,−5.4
same,AA442232 (59109_at) expression change,lot 2 Day 7 AI,−2.2
same,AA456099 (59567_at) expression change,lot 2 Day 7 AI,−3.5
same,AA772055 46104_at expression change,lot 2 Day 7 AI,−15.1
same,AA779895 59136_at expression change,lot 2 Day 7 AI,−6.6
same,ABCC5 1932_at expression change,lot 2 Day 7 AI,−5
same,AF052107 38262_at expression change,lot 2 Day 7 AI,−6.5
same,AI264299 (84903_f_at) expression change,lot 2 Day 7 AI,−5.9
same,AI432375 (49819_at) expression change,lot 2 Day 7 AI,−5
same,AI669212 55436_at expression change,lot 2 Day 7 AI,−6.9
same,AI740855 (83076_at) expression change,lot 2 Day 7 AI,−3.5
same,AI761647 40191_s_at expression change,lot 2 Day 7 AI,−4

# From patent US20050208496A1, “Methods of testing for bronchial asthma or chronic obstructive pulmonary disease” (Genox Research, Inc., priority 2002, published 2005)
